Results from patent publication US20210261512A1, “NOVEL COMPOUNDS” (INFLAZOME LIMITED, priority 2018, published 2021).

Experiments:
NLRP3 [1] = biological target: T1, NLRP3 (Homo sapiens, UniProt Q96P20); assay: THP-1 cells pyroptosis assay; assay type: cell-based; design: Seed THP-1 cells (25,000 cells/well) containing 1.0 μg/ml LPS; host or cells: THP-1; conditions: LPS 1.0 μg/ml, nigericin 5 μM, resazurin readout, 10 μM top dose (Example 2: top dose of 30 μM)
Method in brief: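 Pyroptosis induced by 5 μM nigericin (1 h) in LPS-primed (1 μg/ml) THP-1 cells, 25,000/well in serum-free RPMI, after 3 h compound pre-treatment (8 points, 10 μM top unless stated). Surviving cells measured with 100 μM resazurin, Ex 560/Em 590; IC50 via variable-slope 4-parameter regression.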

NLRP3 [2] = biological target: T1, NLRP3; assay: Human whole blood IL1β release assay; assay type: cell-based; conditions: LPS 1 μg/ml, nigericin 10 μM, IL-1β AlphaLisa, 10 μM top dose (Example 2: top dose of 30 μM), read-out: HWB IC50
Protocol: For systemic delivery, the ability to inhibit NLRP3 when the compounds are present within the bloodstream is of great importance. For this reason, the NLRP3 inhibitory activity of a number of compounds in human whole blood was investigated in accordance with the following protocol.
Human whole blood in sodium-heparin or lithium-heparin tubes was obtained from healthy donors from a volunteer donor panel. • 1. Plate out 80 μl of whole blood containing 1 μg/ml of LPS in 96-well, clear bottom cell culture plate (Corning #3585) • 2. Add 10 μl compound (8 points half-log dilution with 10 μM top dose, unless stated otherwise) or vehicle (DMSO 0.1% FAC) to the appropriate wells • 3. Incubate for 3 hrs at 37° C., 5% CO2 • 4. Add 10 μl nigericin (Sigma #N7143) (10 μM FAC) to all wells • 5. Incubate for 1 hr at 37° C., 5% CO2 • 6. At the end of the incubation period, spin plates at 300×g for 5 mins to pellet cells and remove 20 μl of supernatant and add to 96-well v-bottom plates for IL-1β analysis (note: these plates containing the supernatants can be stored at −80° C. to be analysed at a later date) • 7. IL-1β was measured according to the manufacturer protocol (Perkin Elmer-AlphaLisa IL-1 Kit AL220F-5000) • 8. IC50 data is fitted to a non-linear regression equation (log inhibitor vs response-variable slope 4-parameters)

[3] = PK, intravenous administration; assay type: in vivo; conditions: rat, plasma, male Sprague Dawley rats, dose about 1 mg/kg; for Vd: read-out: Vdss
Protocol: Pharmacokinetic parameters were determined in male Sprague Dawley rats (Vital River Laboratory Animal Technology Co Ltd, Beijing, China, 6-9 weeks old). Animals were maintained under a 12 h light/dark cycle. Animals had free access to food and water, except that orally dosed animals were food deprived overnight prior to the study.
For intravenous administration, compounds were formulated as a solution (in DMSO:water [10:90] or in DMSO:PBS [10:90]) in 2 mL/kg dosing volume and administered via tail vein. For oral administration, compounds were formulated as a solution (in 0.5% methylcellulose in water) in […] dosing volume and administered orally.
Serial blood samples (about 200 μL) were taken from each animal at each of 8 time-points post dose ([…], 0.25, 0.5, 1, 2, 4, 8 and 24 h). Samples were held on ice for no longer than 30 minutes before centrifugation (5,696 rpm (3,000 g) for 15 minutes) for plasma generation. Plasma was frozen on dry ice prior to bioanalysis. PK parameters were generated from LC-MS/MS data using Phoenix WinNonlin 6.3 software.

T1 sequence (Q96P20 whole entry): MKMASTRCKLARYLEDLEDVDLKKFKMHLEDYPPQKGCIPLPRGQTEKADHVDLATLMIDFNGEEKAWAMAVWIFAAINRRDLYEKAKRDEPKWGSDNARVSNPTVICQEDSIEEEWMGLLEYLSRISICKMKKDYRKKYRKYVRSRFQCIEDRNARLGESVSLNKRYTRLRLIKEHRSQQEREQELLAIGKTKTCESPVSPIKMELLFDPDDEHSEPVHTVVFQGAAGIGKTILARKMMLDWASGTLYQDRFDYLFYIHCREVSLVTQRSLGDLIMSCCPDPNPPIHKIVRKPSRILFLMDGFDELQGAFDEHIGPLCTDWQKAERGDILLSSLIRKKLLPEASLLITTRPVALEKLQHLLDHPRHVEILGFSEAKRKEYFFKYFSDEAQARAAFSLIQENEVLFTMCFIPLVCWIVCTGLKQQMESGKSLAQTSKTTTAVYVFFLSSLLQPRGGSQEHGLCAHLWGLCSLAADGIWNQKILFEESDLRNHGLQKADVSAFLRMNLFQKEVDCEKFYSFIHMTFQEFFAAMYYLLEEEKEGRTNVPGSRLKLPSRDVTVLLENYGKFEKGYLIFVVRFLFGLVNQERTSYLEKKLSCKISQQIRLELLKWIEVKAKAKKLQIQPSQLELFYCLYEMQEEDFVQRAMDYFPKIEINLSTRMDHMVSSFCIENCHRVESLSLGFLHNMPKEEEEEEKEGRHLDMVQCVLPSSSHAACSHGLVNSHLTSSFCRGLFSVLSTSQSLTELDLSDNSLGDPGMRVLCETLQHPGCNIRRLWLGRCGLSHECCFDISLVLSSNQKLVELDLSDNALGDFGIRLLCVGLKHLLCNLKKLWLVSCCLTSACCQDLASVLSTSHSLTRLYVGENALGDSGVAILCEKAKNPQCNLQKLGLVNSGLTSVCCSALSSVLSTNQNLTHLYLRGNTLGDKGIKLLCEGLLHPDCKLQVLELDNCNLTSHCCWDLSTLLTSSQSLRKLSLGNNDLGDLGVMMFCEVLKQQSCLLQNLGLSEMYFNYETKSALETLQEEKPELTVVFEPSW

IC50 (NLRP3 [1]) [µM] | IC50 (NLRP3 [2]) [µM] | AUC [3] [ng·h/mL] | clearance [3] [mL/min/kg] | half-life [3] [min] | Vd [3] [L/kg] | Compound
≤ 0.5 | ≤ 0.5 | – | – | – | – | CCN1CCC2(C1)CN(S(=O)(=O)c1nnc(Nc3c4c(cc5c3CCC5)CCC4)[nH]1)C2 [Example 240, 5-((6-ethyl-2,6-diazaspiro[3.4]octan-2-yl)sulfonyl)-N-(1,2,3,5,6,7-hexahydro-s-indacen-4-yl)-4H-1,2,4-triazol-3-amine]
≤ 5 | ≤ 5 | – | – | – | – | CC1(O)CCN(S(=O)(=O)c2nnc(Nc3c4c(cc5c3CCC5)CCC4)[nH]2)CC1 [Example 292, 1-((5-((1,2,3,5,6,7-hexahydro-s-indacen-4-yl)amino)-4H-1,2,4-triazol-3-yl)sulfonyl)-4-methylpiperidin-4-ol]
≤ 0.5 | ≤ 1 | – | – | – | – | COc1cc(-c2ccc3c(c2Nc2nnc(S(=O)(=O)N4CCC5(CCCN5C)CC4)[nH]2)CCC3)ccn1 [Example 258, N-(5-(2-methoxypyridin-4-yl)-2,3-dihydro-1H-inden-4-yl)-5-((1-methyl-1,8-diazaspiro[4.5]decan-8-yl)sulfonyl)-4H-1,2,4-triazol-3-amine]
≤ 10 | – | 3160 | 5.28 | 53.5 | 0.149 | CS(=O)(=O)c1nnc(Nc2c(-c3ccnc(OC4CCCOC4)c3)ccc3c2CCC3)[nH]1 (stereo not drawn) [Example 236, 5-(methylsulfonyl)-N-(5-(2-((tetrahydro-2H-pyran-3-yl)oxy)pyridin-4-yl)-2,3-dihydro-1H-inden-4-yl)-4H-1,2,4-triazol-3-amine]
≤ 0.5 | – | 315 | 52.9 | 35.4 | 1.7 | CN1CCOCC12CCN(S(=O)(=O)c1nnc(Nc3c4c(cc5c3CCC5)CCC4)[nH]1)CC2 [Example 296, N-(1,2,3,5,6,7-hexahydro-s-indacen-4-yl)-5-((1-methyl-4-oxa-1,9-diazaspiro[5.5]undecan-9-yl)sulfonyl)-4H-1,2,4-triazol-3-amine]
≤ 5 | – | 221 | 75.4 | 27.5 | 1.45 | COc1cc(-c2ccc3c(c2Nc2nnc(S(=O)(=O)c4ccccc4C#N)[nH]2)CCC3)ccn1 [Example 310, 2-((5-((5-(2-methoxypyridin-4-yl)-2,3-dihydro-1H-inden-4-yl)amino)-4H-1,2,4-triazol-3-yl)sulfonyl)benzonitrile]
≤ 5 | – | 153 | 109 | 80.4 | 4.03 | Cc1cc(-c2cc(F)cc(C(C)C)c2Nc2nnc(S(=O)(=O)N3CCC(N(C)C)CC3)[nH]2)ccn1 [Example 302, 1-((5-((4-fluoro-2-isopropyl-6-(2-methylpyridin-4-yl)phenyl)amino)-1H-1,2,4-triazol-3-yl)sulfonyl)-N,N-dimethylpiperidin-4-amine]
≤ 0.5 | – | 981 | 17 | 35.7 | 0.54 | CC(C)n1ccc(S(=O)(=O)c2nnc(Nc3c4c(cc5c3CCC5)CCC4)[nH]2)n1 [Example 337, N-(1,2,3,5,6,7-hexahydro-s-indacen-4-yl)-5-((1-isopropyl-1H-pyrazol-3-yl)sulfonyl)-4H-1,2,4-triazol-3-amine]
≤ 5 | – | – | – | – | – | CS(=O)(=O)c1nnc(Nc2c(-c3ccnc(OC4CCOCC4)c3)ccc3c2CCC3)[nH]1 [Example 342, 5-(methylsulfonyl)-N-(5-(2-((tetrahydro-2H-pyran-4-yl)oxy)pyridin-4-yl)-2,3-dihydro-1H-inden-4-yl)-4H-1,2,4-triazol-3-amine]

Continued, molecule first:

Compound | IC50 (NLRP3 [1]) [µM] | IC50 (NLRP3 [2]) [µM] | AUC [3] [ng·h/mL] | clearance [3] [mL/min/kg] | half-life [3] [min] | Vd [3] [L/kg]
CC(C)(O)C1CN(S(=O)(=O)c2nnc(Nc3c4c(cc5c3CCC5)CCC4)[nH]2)C1 [Example 151, 2-(1-((5-((1,2,3,5,6,7-hexahydro-s-indacen-4-yl)amino)-4H-1,2,4-triazol-3-yl)sulfonyl)azetidin-3-yl)propan-2-ol] | ≤ 5 | ≤ 5 | – | – | – | –
CN1CCC(Oc2cc(-c3ccc4c(c3Nc3nnc(S(C)(=O)=O)[nH]3)CCC4)ccn2)CC1 [Example 235, N-(5-(2-((1-methylpiperidin-4-yl)oxy)pyridin-4-yl)-2,3-dihydro-1H-inden-4-yl)-5-(methylsulfonyl)-4H-1,2,4-triazol-3-amine] | ≤ 10 | – | 430 | 38.7 | 130 | 0.935
Cn1cc(S(=O)(=O)c2nnc(Nc3c4c(cc5c3CCC5)CCC4)[nH]2)cn1 [Example 159, N-(1,2,3,5,6,7-hexahydro-s-indacen-4-yl)-5-((1-methyl-1H-pyrazol-4-yl)sulfonyl)-4H-1,2,4-triazol-3-amine] | ≤ 5 | – | 2250 | 6.9 | 55.8 | 0.38
CN1CCC2(C1)CN(S(=O)(=O)c1nnc(Nc3c(-c4ccnc(OC(F)F)c4)ccc4c3CCC4)[nH]1)C2 [Example 213, N-(5-(2-(difluoromethoxy)pyridin-4-yl)-2,3-dihydro-1H-inden-4-yl)-5-((6-methyl-2,6-diazaspiro[3.4]octan-2-yl)sulfonyl)-4H-1,2,4-triazol-3-amine] | ≤ 0.5 | – | 186 | 90.6 | 43.8 | 4.21
O=S(=O)(c1ccccc1)c1nnc(Nc2c3c(cc4c2CCC4)CCC3)[nH]1 [Example 40, N-(1,2,3,5,6,7-hexahydro-s-indacen-4-yl)-5-(phenylsulfonyl)-1H-1,2,4-triazol-3-amine] | ≤ 1 | – | 1460 | 11.4 | 54 | 0.54
CC(C)n1ccc(S(=O)(=O)c2nnc(Cc3c4c(cc5c3CCC5)CCC4)[nH]2)n1 [Example 30, 3-((1,2,3,5,6,7-hexahydro-s-indacen-4-yl)methyl)-5-((1-isopropyl-1H-pyrazol-3-yl)sulfonyl)-4H-1,2,4-triazole] | ≤ 10 | – | – | – | – | –
COc1cc(-c2ccc3c(c2Nc2nnc(S(=O)(=O)c4ccccc4)[nH]2)CCO3)ccn1 [Example 190, N-(5-(2-methoxypyridin-4-yl)-2,3-dihydrobenzofuran-4-yl)-5-(phenylsulfonyl)-4H-1,2,4-triazol-3-amine] | ≤ 5 | – | – | – | – | –
CN(C)C1CCN(S(=O)(=O)c2nnc(Nc3c(-c4cnn(C)c4)ccc4c3CCC4)[nH]2)CC1 [Example 207, N,N-dimethyl-1-((5-((5-(1-methyl-1H-pyrazol-4-yl)-2,3-dihydro-1H-inden-4-yl)amino)-4H-1,2,4-triazol-3-yl)sulfonyl)piperidin-4-amine] | ≤ 5 | – | – | – | – | –
O=S(=O)(Cc1ccccn1)c1nnc(Nc2c3c(cc4c2CCC4)CCC3)[nH]1 [Example 71, N-(1,2,3,5,6,7-hexahydro-s-indacen-4-yl)-3-((pyridin-2-ylmethyl)sulfonyl)-1H-1,2,4-triazol-5-amine] | ≤ 10 | – | – | – | – | –
O=S(=O)(c1ccccn1)c1nnc(Nc2c3c(cc4c2CCC4)CCC3)[nH]1 [Example 170, N-(1,2,3,5,6,7-hexahydro-s-indacen-4-yl)-5-(pyridin-2-ylsulfonyl)-4H-1,2,4-triazol-5-amine] | ≤ 1 | – | – | – | – | –
O=S(=O)(c1nnc(Nc2c3c(cc4c2CCC4)CCC3)[nH]1)N1CCC(N2CCOCC2)C1 (stereo not drawn) [Example 127, N-(1,2,3,5,6,7-hexahydro-s-indacen-4-yl)-5-((3-morpholinopyrrolidin-1-yl)sulfonyl)-4H-1,2,4-triazol-3-amine] | ≤ 5 | – | – | – | – | –
